Test results reported in ChEMBL document CHEMBL3734709, “Design, synthesis and evaluation of diarylpiperazine derivatives as potent anti-tubercular agents” (Eur J Med Chem, 2015).
Converted amounts (≈) assume the structure as drawn.

Tests used:
[1] = Cytotoxicity against african green monkey Vero cells after 72 hrs by MTT assay; format: cell-based; conditions: chlorocebus sabaeus
[2] = test system: Mycobacterium tuberculosis; experiment: Antitubercular activity against Mycobacterium tuberculosis H37Rv measured on day 4 by microplate Alamar blue assay; format: functional; conditions: 96 h
[3] = Selectivity index, ratio of CC50 for african green monkey Vero cells to MIC for Mycobacterium tuberculosis H37Rv; format: toxicity, cell-based; conditions: read-out: Selectivity Index

SMILES	CC50 at 72 h [1] [mg/L]	MIC90 [2] [µM]	selectivity ratio [3]
Cn1c2ccccc2c2cc(C(=O)N3CCN(c4ccccc4)CC3)nc(-c3ccccc3)c21	> 50	27.4 (≈ 12.2 µg/mL)	> 4.1
Cc1ccc(N2CCN(C(=O)c3cc4c5ccccc5n(C)c4c(-c4ccccc4)n3)CC2)cc1	> 50	9.3 (≈ 4.28 µg/mL)	> 11.6
Cc1ccccc1N1CCN(C(=O)c2cc3c4ccccc4n(C)c3c(-c3ccccc3)n2)CC1	> 50	5.2 (≈ 2.4 µg/mL)	> 20.8
COc1ccc(N2CCN(C(=O)c3cc4c5ccccc5n(C)c4c(-c4ccccc4)n3)CC2)cc1	> 50	10.1 (≈ 4.81 µg/mL)	> 8.6
COc1ccccc1N1CCN(C(=O)c2cc3c4ccccc4n(C)c3c(-c3ccccc3)n2)CC1	> 50	3.5 (≈ 1.67 µg/mL)	> 25
Cn1c2ccccc2c2cc(C(=O)N3CCN(c4ccc(Cl)cc4)CC3)nc(-c3ccccc3)c21	> 50	83.3 (≈ 40.1 µg/mL)	> 1.3
Cn1c2ccccc2c2cc(C(=O)N3CCN(c4cccc(Cl)c4)CC3)nc(-c3ccccc3)c21	> 50	79.6 (≈ 38.3 µg/mL)	> 1.3
Cn1c2ccccc2c2cc(C(=O)N3CCN(c4ccccc4Cl)CC3)nc(-c3ccccc3)c21	> 50	5 (≈ 2.4 µg/mL)	> 20.8
Cn1c2ccccc2c2cc(C(=O)N3CCN(c4ccc(F)cc4)CC3)nc(-c3ccccc3)c21	> 50	5.6 (≈ 2.6 µg/mL)	> 19.2
Cn1c2ccccc2c2cc(C(=O)N3CCN(c4ccccc4F)CC3)nc(-c3ccccc3)c21	> 50	5.8 (≈ 2.69 µg/mL)	> 18.5
Cn1c2ccccc2c2cc(C(=O)N3CCN(c4cccc(Cl)c4Cl)CC3)nc(-c3ccccc3)c21	> 50	2.9 (≈ 1.49 µg/mL)	> 33.3
Cn1c2ccccc2c2cc(C(=O)N3CCN(Cc4ccccc4)CC3)nc(-c3ccccc3)c21	> 50	8.9 (≈ 4.1 µg/mL)	> 12.2
Cn1c2ccccc2c2cc(C(=O)N3CCN(c4ccncc4)CC3)nc(-c3ccccc3)c21	18 (≈ 40.2 µM)	9.8 (≈ 4.39 µg/mL)	4.5
Cn1c2ccccc2c2cc(C(=O)N3CCN(c4ccccn4)CC3)nc(-c3ccccc3)c21	> 50	9.8 (≈ 4.39 µg/mL)	> 11.4
CO[C@H]1/C=C/O[C@@]2(C)Oc3c(C)c(O)c4c(O)c(c(/C=N/N5CCN(C)CC5)c(O)c4c3C2=O)NC(=O)/C(C)=C\C=C\[C@H](C)[C@H](O)[C@@H](C)[C@@H](O)[C@@H](C)[C@H](OC(C)=O)[C@@H]1C [RIFAMPIN]	> 150	0.13 (≈ 0.107 µg/mL)	> 1360
